In article PMC4691143, “Biochemical Characterization of An Arginine-Specific Alkaline Trypsin from Bacillus licheniformis” (International Journal of Molecular Sciences, 2015):

System: T1, B. licheniformis DMN6 trypsin (arginine-specific alkaline trypsin)
T1 construct: gene BLDMN6; native secreted enzyme purified from DMN6 culture supernatant (DEAE, Superdex 75); 44 kDa by SDS-PAGE
Experiment: spectrophotometric hydrolysis at […] nm, Lineweaver-Burk
Format: biochemical, Bacillus licheniformis
Conditions: 25 °C, 50 mM Tris-HCl pH 9.0, 0.1-1.5 mM BAEE

Km: 880 µM
SMILES: CCOC(=O)[C@H](CCCNC(=N)N)NC(=O)c1ccccc1 [BAEE]
